According to US5373009A, “Dibenzofuranyl esters of N-heterocyclic carboxylic acids” (priority 1994, dated 1994):

Experiments:
CEH = details: prior art statement; cited from earlier work
[1] = biological target: T1, cholesterol ester hydrolase (CEH) (Bos taurus, UniProt P30122); assay: In vitro inhibition of cholesteryl ester formation by cholesterol esterase (CEH); assay type: biochemical; details: 37° C.; cholesterol and oleic acid; cholesterol esterase from bovine pancreas
T1 construct: purchased Sigma Company, St. Louis, Mo., U.S.A. C-1892; host or cells: bovine pancreas
T1 sequence (P30122 19-597): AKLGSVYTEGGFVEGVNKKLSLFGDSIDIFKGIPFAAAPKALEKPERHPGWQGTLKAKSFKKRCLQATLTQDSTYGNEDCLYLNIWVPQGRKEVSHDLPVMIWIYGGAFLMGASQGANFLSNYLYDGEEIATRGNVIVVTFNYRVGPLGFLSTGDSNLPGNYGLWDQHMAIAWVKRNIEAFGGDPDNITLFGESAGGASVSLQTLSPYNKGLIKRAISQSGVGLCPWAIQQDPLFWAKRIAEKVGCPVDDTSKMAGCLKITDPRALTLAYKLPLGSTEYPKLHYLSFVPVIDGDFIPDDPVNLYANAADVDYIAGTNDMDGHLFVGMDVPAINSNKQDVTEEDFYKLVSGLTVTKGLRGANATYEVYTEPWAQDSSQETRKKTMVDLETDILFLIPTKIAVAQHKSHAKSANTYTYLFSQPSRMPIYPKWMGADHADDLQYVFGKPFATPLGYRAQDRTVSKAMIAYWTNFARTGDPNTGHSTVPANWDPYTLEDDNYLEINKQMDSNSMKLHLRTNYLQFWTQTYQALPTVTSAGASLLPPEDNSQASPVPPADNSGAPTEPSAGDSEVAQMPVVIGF
Experimental: The ability of the compounds of this invention to inhibit the formation of cholesteryl esters and thereby interfere with and prevent assimilation of cholesterol into the lymphatic system and ultimately the blood stream was established by incubating the compounds at 37° C. with a mixture of cholesterol and oleic acid in the presence of buffered cholesterol esterase [(EC 3.1.1.13) Sigma Company, St. Louis, Mo., U.S.A., No. C-1892, from bovine pancreas] and measuring the amount of ester formed, according to the procedure of Field, J. of Lipid Research, 25, 389 (1984).

[2] = system: absorption of 14C-cholesterol; assay: In vivo cholesterol absorption in normal rats (serum radioactivity after oral [4-14C] cholesterol); details: serum radioactivity at 6 hr, vs control
Experimental: The in vivo cholesterol absorption studies were conducted in normal rats by oral administration of the compound being tested in propylene glycol and olive oil followed by oral administration of [4-^14 C] cholesterol in propylene glycol and olive oil, otherwise following the procedure of Cayen et al., J. Lipid Res. 20, 162 (1979). The serum radioactivity was measured at six hours after dosing. The results of this study are reported in Table I as percent decrease compared to control.

SMILES | CEH inhibitor (in words) (CEH) | IC50 [1] [µM] | Effect on Absorption of ^14 C-chol-6 hr-normal rat, % Decrease ([2]; 10 mg/kg) [%] | Effect on Absorption of ^14 C-chol-6 hr-normal rat, % Decrease ([2]; 3 mg/kg) [%]
CNC(=O)OC1CCN(C(=O)Oc2ccc(Oc3ccccc3)cc2)CC1 [4-[[methylamino)carbonyl]oxy]-1-piperidinecarboxylic acid 4-phenoxyphenyl ester] | CEH inhibitor | – | – | –
O=C(Oc1ccc2oc3ccccc3c2c1)N1CCSCC1 [Example 2, 4-Thiomornholinecarboxylic acid 2-dibenzofuranyl ester] | – | 0.51 | 16 | –
CC1(C)CCN(C(=O)Oc2ccc3oc4ccccc4c3c2)CC1 [Example 3, 4,4-Dimethyl-1-piperidinecarboxylic acid 2-dibenzofuranyl ester] | – | 6.5 | – | 44
O=C(Oc1ccc2oc3ccccc3c2c1)N1CCC2(CCCC2)CC1 [Example 4, 8-Azaspiro[4,5]decane-8-carboxylic acid 2-dibenzofuranyl ester] | – | 15 | – | 55
